Results reported in US10751339B2, “Substituted aminopyrimidine compounds and methods of use” (SUNSHINE LAKE PHARMA CO., LTD., priority 2018, dated 2020).

Tests used:
[1] = Compound stability in rat liver microsomes; type: in vitro ADME; conditions: pH 7.4; for CLint scaled at 5 μM: liver microsomes, in vivo CLint extrapolated from rat liver microsome incubation; for half-life at 5 μM: rat liver microsomes 0.5 mg protein/mL, compound 5 μM, NADPH, 37° C., read-out: Rat T1/2
Description: (§1) Human or rat liver microsomes incubations were conducted in duplicate in polypropylene tubes. The typical incubation mixtures consisted of human or rat liver microsomes (0.5 mg protein/mL), compounds of interest (5 μM) and NADPH (1.0 mM) in a total volume of 200 μL potassium phosphate buffer (PBS, 100 mM, pH 7.4). Compounds were dissolved in DMSO and diluted with PBS such that the final concentration of DMSO was 0.05%. The enzymatic reactions were commenced with the addition of protein after a 3-min preincubation and incubated in a water bath open to the air at 37° C. Reactions were terminated at various time points (0, 5, 10, 15, 30, 60 min) by adding equal volume of ice-cold acetonitrile. The samples were stored at −80° C. until LC/MS/MS assays.
(§2) The concentrations of compounds in the incubation mixtures of human or rat liver microsomes were determined by a LC/MS/MS method. The ranges of the linearity in the concentration range were determined for each tested compounds.
(§3) A parallel incubation was performed using denatured microsomes as the negative control, and reactions were terminated at various time points (0, 15, 60 min) after incubation at 37° C.
(§4) Dextromethorphan (70 μM) was selected as the positive control, and reactions were terminated at various time points (0, 5, 10, 15, 30, 60 min) after incubation at 37° C. Both positive and negative control samples were included in each assay to ensure the integrity of the microsomal incubation system.
(§5) The concentrations of compounds in human or rat liver microsome incubations were plotted as a percentage of the relevant zero time point control for each reaction.

[2] = Compound stability in human liver microsomes; type: in vitro ADME; conditions: pH 7.4; for CLint scaled at 5 μM: liver microsomes, in vivo CLint extrapolated from human liver microsome incubation; for half-life at 5 μM: human liver microsomes 0.5 mg protein/mL, compound 5 μM, NADPH, 37° C., read-out: Human T1/2
Description: as §1, §2, §3, §4, §5

[3] = Pharmacokinetic profiles in rats; type: in vivo, rat
Description: The compounds disclosed herein are assessed in pharmacokinetic studies in mice, rats, dogs or monkeys. The compounds are administered as a water solution, 2% HPMC+1% TWEEN®80 in water solution, 5% DMSO+5% solutol in saline, 4% MC suspension or capsule. For the intravenous administration, the animals are generally given at 1 or 2 mg/kg dose. For the oral (p.o.) dosing, mice and rats are generally given 5 or 10 mg/kg dose, and dogs and monkeys are generally given 10 mg/kg dose. The blood samples (0.3 mL) are drawn at 0.25, 0.5, 1.0, 2.0, 3.0, 4.0, 6.0, 8.0, 12 and 24 h time points or 0.083, 0.25, 0.5, 1.0, 2.0, 4.0, 6.0, 8.0 and 24 h time points and centrifuged at 3,000 or 4000 rpm for 2 to 10 min. The plasma solutions are collected, stored at −20° C. or −70° C. until analyzed by LC/MS/MS as described above.

Row | Structure (SMILES) | CLint scaled at 5 μM [1] | half-life at 5 μM [1] | CLint scaled at 5 μM [2] | half-life at 5 μM [2] | clearance ([3]; iv dosing 1 mg/kg) | AUC(0-t) ([3]; rat, plasma, iv dosing 1 mg/kg) | half-life ([3]; rat, plasma, iv dosing 1 mg/kg) | Vd ([3]; rat, plasma, iv dosing 1 mg/kg, read-out: Vss) | bioavailability ([3]; rat, plasma, oral bioavailability)
1 | Cc1noc(-c2c(N)ncnc2N[C@@H](C)c2nc3cccc(C#CC(C)(C)O)c3c(=O)n2-c2ccccc2)n1 [Example 1, (S)-2-(1-((6-amino-5-(3-methyl-1,2,4-oxadiazol-5-yl)pyrimidin-4-yl)amino)ethyl)-5-(3-hydroxy-3-methylbut-1-yn-1-yl)-3-phenylquinazolin-4(3H)-one] | 0.15 L/h/kg | 975 min | 0.858 L/h/kg | 122 min | 0.55 L/h/kg | 1.44 µg·h/mL | 194 min | 2.38 L/kg | 120%
2 | Cc1nc(-c2c(N)ncnc2N[C@@H](C)c2nc3cccc(C#CC(C)O)c3c(=O)n2-c2ccccc2)no1 (stereo partly drawn) [Example 6, 2-((S)-1-((6-amino-5-(5-methyl-1,2,4-oxadiazol-3-yl)pyrimidin-4-yl)amino)ethyl)-5-(3-hydroxybut-1-yn-1-yl)-3-phenylquinazolin-4(3H)-one] | 2.5 L/h/kg | 59.7 min | 1.45 L/h/kg | 71.9 min | – | – | – | – | –
3 | CC(O)C#Cc1cccc2nc([C@H](C)Nc3ncnc(N)c3-c3nnn(C)n3)n(-c3ccccc3)c(=O)c12 (stereo partly drawn) [Example 8, 2-((S)-1-((6-amino-5-(2-methyl-2H-tetrazol-5-yl)pyrimidin-4-yl)amino)ethyl)-5-(3-hydroxybut-1-yn-1-yl)-3-phenylquinazolin-4(3H)-one] | 1.98 L/h/kg | 75.4 min | 0.94 L/h/kg | 111 min | – | – | – | – | –
4 | CC#Cc1cccc2nc([C@H](C)Nc3ncnc(N)c3-c3noc(C)n3)n(-c3ccccc3)c(=O)c12 [Example 11, (S)-2-(1-((6-amino-5-(5-methyl-1,2,4-oxadiazol-3-yl)pyrimidin-4-yl)amino)ethyl)-3-phenyl-5-(prop-1-yn-1-yl)quinazolin-4(3H)-one] | 5.84 L/h/kg | 25.5 min | 3.78 L/h/kg | 27.6 min | – | – | – | – | –
5 | CC#Cc1cccc2nc([C@H](C)Nc3ncnc(N)c3-c3nnn(C)n3)n(-c3ccccc3)c(=O)c12 [Example 12, (S)-2-(1-((6-amino-5-(2-methyl-2H-tetrazol-5-yl)pyrimidin-4-yl)amino)ethyl)-3-phenyl-5-(prop-1-yn-1-yl)quinazolin-4(3H)-one] | 4.25 L/h/kg | 35 min | 5.88 L/h/kg | 17.7 min | – | – | – | – | –
6 | CC#Cc1cccc2nc([C@H](CC)Nc3ncnc(N)c3-c3nnc(C)o3)n(C3CC3)c(=O)c12 [Example 27, (S)-2-(1-((6-amino-5-(5-methyl-1,3,4-oxadiazol-2-yl)pyrimidin-4-yl)amino)propyl)-3-cyclopropyl-5-(prop-1-yn-1-yl)quinazolin-4(3H)-one] | 5.46 L/h/kg | 27.3 min | 6.28 L/h/kg | 16.6 min | – | – | – | – | –
7 | Cc1noc(-c2c(N)ncnc2N[C@@H](C)c2nc3cccc(C#CCO)c3c(=O)n2C2CC2)n1 [Example 30, (S)-2-(1-((6-amino-5-(3-methyl-1,2,4-oxadiazol-5-yl)pyrimidin-4-yl)amino)ethyl)-3-cyclopropyl-5-(3-hydroxyprop-1-yn-1-yl)quinazolin-4(3H)-one] | 1.33 L/h/kg | 112 min | 1.57 L/h/kg | 66.4 min | – | – | – | – | –
8 | C[C@H](Nc1ncnc(N)c1-c1nnn(C)n1)c1nc2cccc(C#CCO)c2c(=O)n1-c1ccccc1 [Example 39, (S)-2-(1-((6-amino-5-(2-methyl-2H-tetrazol-5-yl)pyrimidin-4-yl)amino)ethyl)-5-(3-hydroxyprop-1-yn-1-yl)-3-phenylquinazolin-4(3H)-one] | 2.58 L/h/kg | 57.7 min | 1.73 L/h/kg | 60.2 min | – | – | – | – | –
9 | C#Cc1cccc2nc([C@H](C)Nc3ncnc(N)c3-c3nc(C)no3)n(C3CC3)c(=O)c12 [Example 43, (S)-2-(1-((6-amino-5-(3-methyl-1,2,4-oxadiazol-5-yl)pyrimidin-4-1)amino)ethyl)-3-cyclopropyl-5-ethynylquinazolin-4(3H)-one] | 6.69 L/h/kg | 22.3 min | 6.28 L/h/kg | 16.6 min | – | – | – | – | –
10 | C#Cc1cccc2nc([C@H](C)Nc3ncnc(N)c3-c3nc(C)no3)n(-c3ccccc3)c(=O)c12 [Example 44, (S)-2-(1-((6-amino-5-(3-methyl-1,2,4-oxadiazol-5-yl)pyrimidin-4-yl)amino)ethyl)-5-ethynyl-3-phenylquinazolin-4(3H)-one] | 10.2 L/h/kg | 14.7 min | 17.8 L/h/kg | 5.85 min | – | – | – | – | –
11 | C#Cc1cccc2nc([C@H](C)Nc3ncnc(N)c3-c3nnc(C)o3)n(-c3ccccc3)c(=O)c12 [Example 45, (S)-2-(1-((6-amino-5-(5-methyl-1,3,4-oxadiazol-2-yl)pyrimidin-4-yl)amino)ethyl)-5-ethynyl-3-phenylquinazolin-4(3H)-one] | 5.23 L/h/kg | 28.5 min | 18.1 L/h/kg | 5.77 min | – | – | – | – | –
12 | C[C@H](Nc1ncnc(N)c1-c1ncn(C)n1)c1nc2cccc(C#CCO)c2c(=O)n1-c1ccccc1 [Example 46, (S)-2-(1-((6-amino-5-(1-methyl-1H-1,2,4-triazol-3-yl)pyrimidin-4-yl)amino)ethyl)-5-(3-hydroxyprop-1-yn-1-yl)-3-phenylquinazolin-4(3H)-one] | 3.65 L/h/kg | 40.8 min | 2.95 L/h/kg | 35.3 min | – | – | – | – | –
13 | C#Cc1cccc2nc([C@H](C)Nc3ncnc(N)c3-c3noc(C)n3)n(-c3ccccc3)c(=O)c12 [Example 47, (S)-2-(1-((6-amino-5-(5-methyl-1,2,4-oxadiazol-3-yl)pyrimidin-4-yl)amino)ethyl)-5-ethynyl-3-phenylquinazolin-4(3H)-one] | 8.39 L/h/kg | 17.8 min | 17.2 L/h/kg | 6.05 min | – | – | – | – | –
14 | C#Cc1cccc2nc([C@H](C)Nc3ncnc(N)c3-c3nnn(C)n3)n(-c3ccccc3)c(=O)c12 [Example 48, (S)-2-(1-((6-amino-5-(2-methyl-2H-tetrazol-5-yl)pyrimidin-4-yl)amino)ethyl)-5-ethynyl-3-phenylquinazolin-4(3H)-one] | 10.3 L/h/kg | 14.5 min | 18.6 L/h/kg | 5.6 min | – | – | – | – | –
15 | C#Cc1cccc2nc([C@H](C)Nc3ncnc(N)c3-c3ncn(C)n3)n(-c3ccccc3)c(=O)c12 [Example 49, (S)-2-(1-((6-amino-5-(1-methyl-1H-1,2,4-triazol-3-yl)pyrimidin-4-yl)amino)ethyl)-5-ethynyl-3-phenylquinazolin-4(3H)-one] | 6.43 L/h/kg | 23.2 min | 15.6 L/h/kg | 6.7 min | – | – | – | – | –
16 | C#Cc1cccc2nc([C@H](C)Nc3ncnc(N)c3-c3nnc(C)o3)n(C3CC3)c(=O)c12 [Example 50, (S)-2-(1-((6-amino-5-(5-methyl-1,3 4-oxadiazol-2-yl)pyrimidin-4-yl)amino)ethyl)-3-cyclopropyl-5-ethynylquinazolin-4(3H)-one] | 2.09 L/h/kg | 71.4 min | 2.86 L/h/kg | 36.5 min | – | – | – | – | –
17 | C#Cc1cccc2nc([C@H](C)Nc3ncnc(N)c3-c3noc(C)n3)n(C3CC3)c(=O)c12 [Example 51, (S)-2-(1-((6-amino-5-(5-methyl-1,2,4-oxadiazol-3-yl)pyrimidin-4-yl)amino)ethyl)-3-cyclopropyl-5-ethynylquinazolin-4(3H)-one] | 7.99 L/h/kg | 18.7 min | 7.07 L/h/kg | 14.8 min | – | – | – | – | –
18 | C#Cc1cccc2nc([C@H](C)Nc3ncnc(N)c3-c3ncn(C)n3)n(C3CC3)c(=O)c12 [Example 53, (S)-2-(1-((6-amino-5-(1-methyl-1H-1,2,4-triazol-3-yl)pyrimidin-4-yl)amino)ethyl)-3-cyclopropyl-5-ethynylquinazolin-4(3H)-one] | 4.25 L/h/kg | 35 min | 4.47 L/h/kg | 23.4 min | – | – | – | – | –
